# Experimental data from patent US10641781B2, “Method, composition and device for sampling natriuretic peptides in a biological fluid” (CRIMSON U.S. ASSETS, LLC, priority 2008, dated 2020).
# Entries after “also recorded” stand apart in the source; their conditions may differ. Where a name gives a salt, the structure may show the parent alone. Where a SMILES comes first, the peptide text is derived from it. [ ]: non-standard residue; d: D form. The star is where a group is joined. Sta = CC(C)C[C@H](N)[C@@H](O)CC(=O)O; Isovaleryl = CC(C)CC(=O)*; CH2Cl = ClC*
# Key:
# BNP1-32 hydrolysis = BNP1-32 hydrolysis in heparin plasma treated with protease inhibitors, room temperature, MSIA; assay type: biochemical, human; conditions: for effect on BNP hydrolysis: BNP1-32 10 ng/mL
# From the text: (§1) In order to observe, characterize and identify the BNP hydrolysis products a Mass Spectrometric Immunoassay (MSIA) was developed and employed in the analysis of BNP. This technique is broadly described in, e.g., Nelson et al. (1995) Anal. Chem. 67, 1153-1158; Tubbs et al. (2001) Anal. Biochem. 289, 26-35; Kiernan et al. (2002) Anal. Biochem. 301, 49-56; Niederkofler et al. (2003) J. Lipid Res. 44, 630-639 and U.S. Pat. Nos. 6,783,672; 6,974,704; 7,083,723; 7,083,724; 7,087,163; 7,087,164; 7,087,165; and 7,087,163. The basic methodology is described in the context of BNP although the technique is also applicable to ANP and other peptides of interest.
# (§2) Briefly, MSIA entails the use of affinity capture, to extract BNP and many of its' hydrolysis products for mass spectrometric detection, to observe and identify products of BNP hydrolysis. Therefore, synthesized BNP1-32 was added to room temperature plasma (from blood collected in heparinized blood collection tubes). At a several times post-spiking BNP1-32 into the plasma, aliquots of the spiked plasma were analyzed to monitor the progress of BNP1-32 hydrolysis. The results of performing a series of analyses on aliquots removed and analyzed every hour for up to six hours post-addition of BNP1-32 at 100 ng/mL are shown in FIG. 2. […] The last two species are indistinguishable in the chart due to similar amino acid compositions. […]
# Next, the individual protease inhibitors, including some of those included in protease inhibitor cocktail set III (EMD) were tested using the protocols described supra. Briefly, aliquots of heparin plasma were treated with each one of the protease inhibitors. To each aliquot of plasma, BNP1-32 was added at 10 ng/mL and incubated at room temperature. Aliquots were sequentially removed and analyzed for BNP hydrolysis.
# Briefly, aliquots of heparin plasma were treated with each one of these protease inhibitors. To each aliquot of plasma, BNP1-32 was added at 10 ng/mL and incubated at room temperature. Aliquots were sequentially removed and analyzed for BNP hydrolysis.
# Further testing added to the list of inexpensive protease inhibitors effective in combination with AEB SF in avoiding adducts starting with benzamidine hydrochloride (Calbiochem catalog no. 199001). […] Briefly, aliquots of heparin plasma were treated with the protease inhibitor. To each aliquot of plasma, BNP1-32 was added at 10 ng/mL and incubated at room temperature. Aliquots were sequentially removed and analyzed for BNP hydrolysis.
# In addition, PPACK I dihydrochloride (Calbiochem catalog no. 520222) and PPACK II trifluoroacetate salt (Calbiochem catalog no. 520219) were also tested at a concentration of 1 mM each. […]
# BNP hydrolysis [1] = experiment: BNP hydrolysis in EDTA versus heparin plasma at room temperature, MSIA; assay type: biochemical, human; conditions: plasma spiked with BNP1-32, room temperature, aliquots at 1 hour and 2 hours
# Procedure: Blood from a single individual was collected in both heparin and EDTA blood collection tubes. The collected blood was centrifuged to remove cellular components and the supernatant (plasma) was collected. To the EDTA and heparin plasma, BNP1-32 was added and incubated at room temperature with aliquots removed for analysis of BNP hydrolysis at 1 hour and 2 hours.
# [2] = Time course of BNP1-32 hydrolysis in plasma without inhibitor, by mass spectrometric immunoassay (MSIA); assay type: in vitro ADME, human; conditions: heparin plasma, no inhibitor, room temperature, BNP1-32 at 100 ng/mL, four hours after addition
# From the text: as §1, §2
# [3] = cited from earlier work
# [4] = after separation of plasma from whole blood; cited from earlier work
# proteolysis of BNP = conditions: sampled blood or plasma; cited from earlier work
# BNP hydrolysis [5] = experiment: BNP stability in plasma stored at -70 C, MSIA; assay type: biochemical, human; conditions: tested on day of collection and six months later
# Procedure: The limited proteolysis prior to the addition of the protease inhibitors is preserved in the sample. The sampled plasma was assayed for the presence of BNP fragments on the day of collection and then six month later. […] This may reflect the presence of metalloproteinases in heparinized blood.
# To examine this, BNP peptides corresponding to those previously identified as products resulting from the hydrolysis of BNP1-32 were synthesized and added to EDTA plasma treated with 10 mM AEBSF and 20 mM Benzamidine. An aliquot of the sample was analyzed for the added BNP peptides soon after the addition of the peptides to the plasma, while the rest of the plasma was stored at −70° C. for 7 weeks. After 7 weeks of storage the plasma was removed from the freezer, thawed and analyzed for the existence of the added BNP peptides.
# [6] = weak basic conditions (pH 8-9); cited from earlier work
compound,measurement,setting,value
NC(N)=NCCC[C@H](NC(=O)[C@H](Cc1ccccc1)NC(=O)[C@H](N)Cc1ccccc1)C(=O)CCl [PPACK II] (H-[dF]-Phe-Arg-CH2Cl),effect on BNP hydrolysis,BNP1-32 hydrolysis; inhibitor at 1 mM,slowed the rate of BNP hydrolysis; also recorded: reduced BNP proteolysis
Heparin,effect of anti-coagulant on BNP hydrolysis,BNP hydrolysis [1],relatively ineffective in preventing BNP proteolysis
same,effect of anti-coagulant on BNP hydrolysis,BNP hydrolysis [1]; listed as heparin,progress towards the production of BNP hydrolysis products smaller than the BNP3-32
BNP1-32: 32-amino acid B-type natriuretic peptide; synthesized BNP1-32 spiked into plasma,hydrolysis of BNP1-32 in plasma,[2],all of the BNP1-32 appears to have been processed into smaller peptides
same,half-life (t1/2) in vivo,[3],approximately 20 minutes
same,time within which BNP is proteolyzed in vitro,[4],≤ 24 h
CC(C)C[C@H](NC(=O)[C@@H](O)[C@H](N)Cc1ccccc1)C(=O)O [Bestatin],effect on BNP hydrolysis,BNP1-32 hydrolysis; inhibitor at 0.5 mM,little or no effect on BNP proteolysis; also recorded: did not appreciably prevent the hydrolysis of BNP
NC(N)=NCCC[C@H](NC(=O)[C@@H]1CCCN1C(=O)[C@H](N)Cc1ccccc1)C(=O)CCl [PPACK],effectiveness in arresting proteolysis of BNP,proteolysis of BNP,most effective in arresting proteolysis of BNP
Cl.Cl.NC(N)=NCCC[C@H](NC(=O)[C@@H]1CCCN1C(=O)[C@H](N)Cc1ccccc1)C(=O)CCl [PPACK I],effect on BNP hydrolysis,BNP1-32 hydrolysis; inhibitor at 1 mM,slowed the rate of BNP hydrolysis; also recorded: reduced BNP proteolysis
CC(C)C[C@H](NC(=O)[C@H]1O[C@@H]1C(=O)O)C(=O)NCCCCN=C(N)N [E64],effect on BNP hydrolysis,BNP1-32 hydrolysis; inhibitor at 1 mM,little or no effect on BNP proteolysis; also recorded: did not appreciably prevent the hydrolysis of BNP
"O=C([O-])CN(CCN(CC(=O)[O-])CC(=O)O)CC(=O)[O-].[Na+].[Na+].[Na+] [EDTA, ethylenediamine tetracetic acid]",BNP hydrolysis in EDTA plasma without protease inhibitors,BNP hydrolysis [5],the hydrolysis stops at the formation of the BNP3-32; also recorded: proteolysis of BNP1-32 leading to the formation of BNP3-32
same,effect of anti-coagulant on BNP hydrolysis,BNP hydrolysis [1],BNP hydrolysis stops with the formation of the BNP3-32; also recorded: reduce BNP hydrolysis
"Cl.NCCc1ccc(S(=O)(=O)F)cc1 [AEBSF, 4-(2-Aminoethyl) benzenesulfonyl fluoride hydrochloride]",effect on BNP hydrolysis,"BNP1-32 hydrolysis; inhibitor at 1 mM, hydrochloride",slowed the hydrolysis of BNP; also recorded: reduced BNP proteolysis
same,effect on BNP hydrolysis,"BNP1-32 hydrolysis; inhibitor at 2.5 mM, hydrochloride",almost completely inhibited the hydrolysis of BNP; also recorded: reduced BNP proteolysis
same,effect on BNP hydrolysis,"BNP1-32 hydrolysis; inhibitor at 5 mM, hydrochloride",almost completely inhibited the hydrolysis of BNP; also recorded: reduced BNP proteolysis
same,hydrolysis of the inhibitor,[6],slow hydrolysis
CC(C)CC(=O)N[C@H](C(=O)N[C@H](C(=O)N[C@@H](CC(C)C)[C@@H](O)CC(=O)N[C@@H](C)C(=O)N[C@@H](CC(C)C)[C@@H](O)CC(=O)O)C(C)C)C(C)C [Pepstatin A] (Isovaleryl-VV[Sta]A[Sta]-OH),effect on BNP hydrolysis,BNP1-32 hydrolysis; inhibitor at 0.1 mM,little or no effect on BNP proteolysis; also recorded: did not appreciably prevent the hydrolysis of BNP
"N=C(N)c1ccccc1 [Benzamidine hydrochloride, Benzamidine]",effectiveness in slowing BNP hydrolysis relative to other inhibitors,BNP1-32 hydrolysis; 1 mM,"better than PPACK I and PPACK II, but it was not as effective as AEBSF"
same,effect on BNP hydrolysis,BNP1-32 hydrolysis; inhibitor at 1 mM,slowed the hydrolysis of BNP
same,effect on BNP hydrolysis,"BNP1-32 hydrolysis; inhibitor at 1 mM, listed as Benzamidine",reduced BNP proteolysis
CC(=O)N[C@@H](CC(C)C)C(=O)N[C@@H](CC(C)C)C(=O)N[C@H](C=O)CCCNC(=N)N [Leupeptin],effect on BNP hydrolysis,BNP1-32 hydrolysis; inhibitor at 0.1 mM,slowed the hydrolysis of BNP
same,effect on BNP hydrolysis,BNP1-32 hydrolysis; inhibitor at 1 mM,slow BNP proteolysis
